Assay results: patent US20260285850A1, “SUBSTITUTED OXAZOLIDINONES AND IMIDAZOLINONES AS HERBICIDES” (FMC CORPORATION, priority 2023, published 2026)

Experiments:
Assay type in all cases: in vivo
[1] = tested on: barnyardgrass (Echinochloa crus-galli); assay: Test A postemergence application, visual injury rating 0-100; settings: Postemergence, 10 days, 0 is no effect, 100 is complete control
Procedure, shortened: (§1)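 Directed preemergence spray onto seeded soil or postemergence spray onto 2-10 cm plants (loam plus sand); compound carried in surfactant-containing non-phytotoxic solvent. Injury rated by eye after 10 d greenhouse growth; 0 = no effect, 100 = complete control.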

[2] = tested on: wheat (Triticum aestivum); assay: as above; settings: Postemergence, 10 days, 0 is no effect, 100 is complete control
Procedure, shortened: as §1

[3] = tested on: corn (Zea mays); assay: as above; settings: Postemergence, 10 days, 0 is no effect, 100 is complete control
Procedure, shortened: as §1

[4] = tested on: blackgrass (Alopecurus myosuroides); assay: as above; settings: Postemergence, 10 days, 0 is no effect, 100 is complete control
Procedure, shortened: as §1

[5] = tested on: kochia (Bassia scoparia); assay: as above; settings: Postemergence, 10 days, 0 is no effect, 100 is complete control
Procedure, shortened: as §1

[6] = tested on: palmer (palmer amaranth, palmer pigweed, Amaranthus palmeri); assay: as above; settings: Postemergence, 10 days, 0 is no effect, 100 is complete control
Procedure, shortened: as §1

[7] = tested on: oat, wild (wild oat, Avena fatua); assay: as above; settings: Postemergence, 10 days, 0 is no effect, 100 is complete control
Procedure, shortened: as §1

[8] = tested on: ryegrass, Italian (italian ryegrass, Lolium multiflorum); assay: as above; settings: Postemergence, 10 days, 0 is no effect, 100 is complete control
Procedure, shortened: as §1

[9] = tested on: ragweed (common ragweed, Ambrosia artemisiifolia); assay: as above; settings: Postemergence, 10 days, 0 is no effect, 100 is complete control
Procedure, shortened: as §1

[10] = tested on: green foxtail (Setaria viridis); assay: as above; settings: Postemergence, 10 days, 0 is no effect, 100 is complete control
Procedure, shortened: as §1

[11] = tested on: horseweed (Erigeron canadensis); assay: as above; settings: Postemergence, 10 days, 0 is no effect, 100 is complete control
Procedure, shortened: as §1

[12] = tested on: soybean (Glycine max); assay: as above; settings: Postemergence, 10 days, 0 is no effect, 100 is complete control
Procedure, shortened: as §1

[13] = tested on: galium (catchweed bedstraw, Galium aparine); assay: as above; settings: Postemergence, 10 days, 0 is no effect, 100 is complete control
Procedure, shortened: as §1

[14] = tested on: barnyardgrass (Echinochloa crus-galli); assay: Test A preemergence soil spray, visual injury rating 0-100; settings: 10 days, 0 = no effect, 100 = complete control
Procedure, shortened: as §1

[15] = tested on: wheat (Triticum aestivum); assay: as above; settings: 10 days, 0 = no effect, 100 = complete control
Procedure, shortened: as §1

[16] = tested on: corn (Zea mays); assay: as above; settings: 10 days, 0 = no effect, 100 = complete control
Procedure, shortened: as §1

[17] = tested on: blackgrass (Alopecurus myosuroides); assay: as above; settings: 10 days, 0 = no effect, 100 = complete control
Procedure, shortened: as §1

[18] = tested on: kochia (Bassia scoparia); assay: as above; settings: 10 days, 0 = no effect, 100 = complete control
Procedure, shortened: as §1

[19] = tested on: palmer (palmer amaranth, palmer pigweed, Amaranthus palmeri); assay: as above; settings: 10 days, 0 = no effect, 100 = complete control
Procedure, shortened: as §1

[20] = tested on: oat, wild (wild oat, Avena fatua); assay: as above; settings: 10 days, 0 = no effect, 100 = complete control
Procedure, shortened: as §1

[21] = tested on: ryegrass, Italian (italian ryegrass, Lolium multiflorum); assay: as above; settings: 10 days, 0 = no effect, 100 = complete control
Procedure, shortened: as §1

[22] = tested on: ragweed (common ragweed, Ambrosia artemisiifolia); assay: as above; settings: 10 days, 0 = no effect, 100 = complete control
Procedure, shortened: as §1

[23] = tested on: green foxtail (Setaria viridis); assay: as above; settings: 10 days, 0 = no effect, 100 = complete control
Procedure, shortened: as §1

[24] = tested on: soybean (Glycine max); assay: as above; settings: 10 days, 0 = no effect, 100 = complete control
Procedure, shortened: as §1

[25] = tested on: ducksalad (Heteranthera limosa); assay: Test B flooded paddy test, visual plant response rating 0-100; settings: 250 g ai/ha, Flood, applied to paddy water, evaluated after 13 days
Procedure, shortened: (§2)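 Visual scores versus untreated controls were recorded 13 days after treatment of greenhouse-held plants. At the 2-leaf stage, pots were flooded 3 cm above the soil surface and compounds added straight to the water.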

[26] = tested on: rice (Oryza sativa); assay: as above; settings: 250 g ai/ha, Flood, applied to paddy water, evaluated after 13 days
Procedure, shortened: as §2

[27] = tested on: barnyardgrass (Echinochloa crusgalli); assay: as above; settings: 250 g ai/ha, Flood, applied to paddy water, evaluated after 13 days
Procedure, shortened: as §2

[28] = tested on: sedge, umbrella (small-flower umbrella sedge, Cyperus difformis); assay: as above; settings: 250 g ai/ha, Flood, applied to paddy water, evaluated after 13 days
Procedure, shortened: as §2

CC(C)OC(=O)C1C=CC(NC(=O)C2(C)CN(c3cc(Cl)cc(Cl)c3)C(=O)O2)C1 (stereo not shown) [Compound 43]
Barnyardgrass plant response rating (0 to 100 scale) ([1]; 125 g ai/ha): 100
Barnyardgrass plant response rating (0 to 100 scale) ([1]; 500 g ai/ha): 100
Wheat plant response rating (0 to 100 scale) ([2]; 125 g ai/ha): 90
Wheat plant response rating (0 to 100 scale) ([2]; 500 g ai/ha): 90
Corn plant response rating (0 to 100 scale) ([3]; 125 g ai/ha): 100
Corn plant response rating (0 to 100 scale) ([3]; 500 g ai/ha): 100
Blackgrass plant response rating (0 to 100 scale) ([4]; 125 g ai/ha): 100
Blackgrass plant response rating (0 to 100 scale) ([4]; 500 g ai/ha): 100
Kochia plant response rating (0 to 100 scale) ([5]; 125 g ai/ha): 80
Kochia plant response rating (0 to 100 scale) ([5]; 500 g ai/ha): 80
Amaranth, Palmer / Pigweed, Palmer plant response rating (0 to 100 scale) ([6]; 125 g ai/ha): 100
Amaranth, Palmer / Pigweed, Palmer plant response rating (0 to 100 scale) ([6]; 500 g ai/ha): 100
Oat, Wild plant response rating (0 to 100 scale) ([7]; 125 g ai/ha): 90
Oat, Wild plant response rating (0 to 100 scale) ([7]; 500 g ai/ha): 90
Ryegrass, Italian plant response rating (0 to 100 scale) ([8]; 125 g ai/ha): 90
Ryegrass, Italian plant response rating (0 to 100 scale) ([8]; 500 g ai/ha): 90
Ragweed plant response rating (0 to 100 scale) ([9]; 125 g ai/ha): 60
Ragweed plant response rating (0 to 100 scale) ([9]; 500 g ai/ha): 80
Foxtail, Green plant response rating (0 to 100 scale) ([10]; 125 g ai/ha): 90
Foxtail, Green plant response rating (0 to 100 scale) ([10]; 500 g ai/ha): 90
Horseweed plant response rating (0 to 100 scale) ([11]; 125 g ai/ha): 60
Horseweed plant response rating (0 to 100 scale) ([11]; 500 g ai/ha): 80
Soybean plant response rating (0 to 100 scale) ([12]; 125 g ai/ha): 80
Soybean plant response rating (0 to 100 scale) ([12]; 500 g ai/ha): 80
Galium plant response rating (0 to 100 scale) ([13]; 125 g ai/ha): 70
Galium plant response rating (0 to 100 scale) ([13]; 500 g ai/ha): 70
Barnyardgrass plant response rating (0 to 100 scale) ([14]; 125 g ai/ha): 100
Barnyardgrass plant response rating (0 to 100 scale) ([14]; 500 g ai/ha): 100
Wheat plant response rating (0 to 100 scale) ([15]; 125 g ai/ha): 90
Wheat plant response rating (0 to 100 scale) ([15]; 500 g ai/ha): 90
Corn plant response rating (0 to 100 scale) ([16]; 125 g ai/ha): 80
Corn plant response rating (0 to 100 scale) ([16]; 500 g ai/ha): 90
Blackgrass plant response rating (0 to 100 scale) ([17]; 125 g ai/ha): 90
Blackgrass plant response rating (0 to 100 scale) ([17]; 500 g ai/ha): 100
Kochia plant response rating (0 to 100 scale) ([18]; 125 g ai/ha): 80
Kochia plant response rating (0 to 100 scale) ([18]; 500 g ai/ha): 90
Amaranth, Palmer plant response rating (0 to 100 scale) ([19]; 125 g ai/ha): 100
Amaranth, Palmer plant response rating (0 to 100 scale) ([19]; 500 g ai/ha): 100
Oat, Wild plant response rating (0 to 100 scale) ([20]; 125 g ai/ha): 90
Oat, Wild plant response rating (0 to 100 scale) ([20]; 500 g ai/ha): 90
Ryegrass, Italian plant response rating (0 to 100 scale) ([21]; 125 g ai/ha): 90
Ryegrass, Italian plant response rating (0 to 100 scale) ([21]; 500 g ai/ha): 90
Ragweed plant response rating (0 to 100 scale) ([22]; 125 g ai/ha): 30
Ragweed plant response rating (0 to 100 scale) ([22]; 500 g ai/ha): 80
Foxtail, Green plant response rating (0 to 100 scale) ([23]; 125 g ai/ha): 90
Foxtail, Green plant response rating (0 to 100 scale) ([23]; 500 g ai/ha): 100
Soybean plant response rating (0 to 100 scale) ([24]; 125 g ai/ha): 40
Soybean plant response rating (0 to 100 scale) ([24]; 500 g ai/ha): 60
Plant response rating, Ducksalad (0 to 100 scale, 0 is no effect and 100 is complete control) [25]: 90
Plant response rating, Rice (0 to 100 scale, 0 is no effect and 100 is complete control) [26]: 20
Plant response rating, Barnyardgrass (0 to 100 scale, 0 is no effect and 100 is complete control) [27]: 85
Plant response rating, Sedge, Umbrella (0 to 100 scale, 0 is no effect and 100 is complete control) [28]: 95
